Measured values from patent US20250011299A1, “PYRIDAZINYL AMINO DERIVATIVES AS ALK5 INHIBITORS” (CHIESI FARMACEUTICI S.P.A., priority 2021, published 2025).

Molecular target: T1, human ALK5 (Homo sapiens, UniProt P36897)
T1 construct: human ALK5 (recombinant TGF β1 N-term GST-tagged, 80-end); GST (N); purchased
T1 sequence (P36897 80-503 limits assumed): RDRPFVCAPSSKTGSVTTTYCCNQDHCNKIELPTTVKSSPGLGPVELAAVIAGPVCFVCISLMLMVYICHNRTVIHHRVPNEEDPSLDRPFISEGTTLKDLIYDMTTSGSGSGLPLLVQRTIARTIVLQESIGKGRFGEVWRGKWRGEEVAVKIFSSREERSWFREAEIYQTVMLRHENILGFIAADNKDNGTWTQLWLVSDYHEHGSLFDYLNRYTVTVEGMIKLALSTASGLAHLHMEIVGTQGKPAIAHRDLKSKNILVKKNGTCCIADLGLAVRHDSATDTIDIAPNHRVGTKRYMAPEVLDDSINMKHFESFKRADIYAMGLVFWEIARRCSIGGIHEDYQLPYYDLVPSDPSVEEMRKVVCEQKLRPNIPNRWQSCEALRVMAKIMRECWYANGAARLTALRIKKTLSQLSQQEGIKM
Test: ADP-GLO Kinases assay of ALK5 enzymatic activity
Type: biochemical
Settings: purified recombinant human ALK5, TGFβ1 peptide substrate, pIC50 converted to pKi by Cheng-Prusoff, high ATP protocol (15 μM) for very potent compounds, 25° C.
How it was run: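 Purified ALK5 preincubated 15 min with compound, then reacted with substrate and ATP; ADP formed read by ADP-Glo luminescence after 120 min or 60 min reaction, all steps at 25° C. 11-point concentration-response; pIC50 converted to pKi via Cheng-Prusoff.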

| Structure (SMILES) | Ki [nM] |
| --- | --- |
| COc1ccc2c(Nc3cc(-c4cc(Cl)ccc4F)nnc3OCCN3CCN(C)CC3)ccnc2c1 [Example 35, N-[6-(5-chloro-2-fluorophenyl)-3-[2-(4-methylpiperazin-1-yl)ethoxy]pyridazin-4-yl]-7-methoxyquinolin-4-amine] | 0.126 to 0.316 |
| CN1CCN(CCC(=O)Nc2cc(Nc3cc(-c4cc(Cl)ccc4F)nnc3[S+](C)[O-])ccn2)CC1 (stereo not shown) [Example 17, N-(4-{[6-(5-chloro-2-fluorophenyl)-3-methanesulfinylpyridazin-4-yl]amino}pyridin-2-yl)-3-(4-methylpiperazin-1-yl)propanamide] | 0.126 to 0.316 |
| COC(=O)c1cc2c(Nc3cc(-c4cc(Cl)ccc4F)nnc3OCCCN(C)C)ccnc2[nH]1 [Example 10, methyl 4-{[6-(5-chloro-2-fluorophenyl)-3-[3-(dimethylamino)propoxy]pyridazin-4-yl]amino}-1H-pyrrolo[2,3-b]pyridine-2-carboxylate] | 0.398 to 3.16 |
| CN1CCC2(CCN(C(=O)Nc3cc(Nc4cc(-c5cc(Cl)ccc5F)nnc4SCCO)ccn3)CC2)C1 [Example 26, N-(4-{[6-(5-chloro-2-fluorophenyl)-3-[(2-hydroxyethyl)sulfanyl]pyridazin-4-yl]amino}pyridin-2-yl)-2-methyl-2,8-diazaspiro[4.5]decane-8-carboxamide] | ≤ 0.1 |
| CN1C2CC1CN([C@H]1C[C@@H](C(=O)Nc3cc(Nc4cc(-c5cc(Cl)ccc5F)nnc4SCCO)ccn3)C1)C2 [Example 175, Cis N-(4-{[6-(5-chloro-2-fluorophenyl)-3-[(2-hydroxyethyl)sulfanyl]pyridazin-4-yl]amino}pyridin-2-yl)-3-{6-methyl-3,6-diazabicyclo[3.1.1]heptan-3-yl}cyclobutane-1-carboxamide] | ≤ 0.1 |
| CN1CCN(CCOc2ccc3c(Nc4cc(-c5cc(Cl)ccc5F)nnc4OCC(F)F)ccnc3c2)CC1 [Example 3, N-[6-(5-chloro-2-fluorophenyl)-3-(2,2-difluoroethoxy)pyridazin-4-yl]-7-[2-(4-methylpiperazin-1-yl)ethoxy]quinolin-4-amine] | ≤ 0.1 |
| CN1CCN(CCOc2ccc3c(Nc4cc(-c5cc(Cl)ccc5F)nnc4OCCN)ccnc3c2)CC1 [Example 5, N-[3-(2-aminoethoxy)-6-(5-chloro-2-fluorophenyl)pyridazin-4-yl]-7-[2-(4-methylpiperazin-1-yl)ethoxy]quinolin-4-amine] | 0.126 to 0.316 |
| CN1CCN(CCC(=O)Nc2cc(Nc3cc(-c4cc(Cl)ccc4F)nnc3OCCNS(C)(=O)=O)ccn2)CC1 [Example 9, N-(4-{[6-(5-chloro-2-fluorophenyl)-3-(2-methanesulfonamidoethoxy)pyridazin-4-yl]amino}pyridin-2-yl)-3-(4-methylpiperazin-1-yl)propanamide] | ≤ 0.1 |
| CS(=O)(=O)NCCOc1nnc(-c2cc(Cl)ccc2F)cc1Nc1ccnc(N)c1 [Example 45, N-[2-({4-[(2-aminopyridin-4-yl)amino]-6-(5-chloro-2-fluorophenyl)pyridazin-3-yl}oxy)ethyl]methanesulfonamide] | ≤ 0.1 |
| CN(C)CCOc1nnc(-c2cc(Cl)ccc2F)cc1Nc1ccnc2[nH]ccc12 [Example 41, 6-(5-chloro-2-fluorophenyl)-3-[2-(dimethylamino)ethoxy]-N-{1H-pyrrolo[2,3-b]pyridin-4-yl}pyridazin-4-amine] | 0.398 to 3.16 |

Now from value to molecule:

| Ki [nM] | Structure (SMILES) |
| --- | --- |
| 0.126 to 0.316 | CN1CCN(CCC(=O)Nc2cc(Nc3cc(-c4cc(Cl)ccc4F)nnc3N3CC(C(=O)O)C3)ccn2)CC1 [Example 99, 1-[6-(5-chloro-2-fluorophenyl)-4-({2-[3-(4-methylpiperazin-1-yl)propanamido]pyridin-4-yl}amino)pyridazin-3-yl]azetidine-3-carboxylic acid] |
| 0.398 to 3.16 | COCCOc1nnc(-c2cc(Cl)ccc2F)cc1Nc1ccnc(N)c1 [Example 69, N4-[6-(5-chloro-2-fluorophenyl)-3-(2-methoxyethoxy)pyridazin-4-yl]pyridine-2,4-diamine] |
| 0.126 to 0.316 | C[C@@H]1CN(CC23CC(C(=O)Nc4cc(Nc5cc(-c6cc(Cl)ccc6F)nnc5SCCO)ccn4)(C2)C3)C[C@H](C)N1 [Example 191, N-(4-{[6-(5-chloro-2-fluorophenyl)-3-[(2-hydroxyethyl)sulfanyl]pyridazin-4-yl]amino}pyridin-2-yl)-3-[(3,5-dimethylpiperazin-1-yl)methyl]bicyclo[1.1.1]pentane-1-carboxamide] |
| 0.126 to 0.316 | CN(C)CCOC(=O)c1cccc(CSc2nnc(-c3cc(Cl)ccc3F)cc2Nc2ccnc3[nH]ccc23)c1 [Example 207, 2-(dimethylamino)ethyl 3-({[6-(5-chloro-2-fluorophenyl)-4-({1H-pyrrolo[2,3-b]pyridin-4-yl}amino)pyridazin-3-yl]sulfanyl}methyl)benzoate] |
| ≤ 0.1 | CN1CCN(CCC(=O)Nc2cc(Nc3cc(-c4cc(Cl)ccc4F)nnc3SCCO)ncn2)CC1 [Example 176, N-(6-{[6-(5-chloro-2-fluorophenyl)-3-[(2-hydroxyethyl)sulfanyl]pyridazin-4-yl]amino}pyrimidin-4-yl)-3-(4-methylpiperazin-1-yl)propanamide] |
| 0.126 to 0.316 | COC(=O)C12CC(COc3nnc(-c4cc(Cl)ccc4F)cc3Nc3ccnc(NC(=O)CCN4CCN(C)CC4)c3)(C1)C2 [Example 125, methyl 3-({[6-(5-chloro-2-fluorophenyl)-4-({2-[3-(4-methylpiperazin-1-yl)propanamido]pyridin-4-yl}amino)pyridazin-3-yl]oxy}methyl)bicyclo[1.1.1]pentane-1-carboxylate] |
| 0.398 to 3.16 | CC(C)OC(=O)C1CCN1c1nnc(-c2cc(Cl)ccc2F)cc1Nc1ccnc(NC(=O)CCN2CCN(C)CC2)c1 (racemic) [Example 150, propan-2-yl 1-[6-(5-chloro-2-fluorophenyl)-4-({2-[3-(4-methylpiperazin-1-yl)propanamido]pyridin-4-yl}amino)pyridazin-3-yl]azetidine-2-carboxylate] |
| ≤ 0.1 | O=C(Nc1cc(Nc2cc(-c3cc(Cl)ccc3F)nnc2OCCN2CCCC2)ccn1)C1CC1 [Example 54, N-(4-{[6-(5-chloro-2-fluorophenyl)-3-[2-(pyrrolidin-1-yl)ethoxy]pyridazin-4-yl]amino}pyridin-2-yl)cyclopropanecarboxamide] |
| ≤ 0.1 | CN1C[C@@H]2C[C@H]1CN2CC(=O)Nc1cc(Nc2cc(-c3cc(Cl)ccc3F)nnc2OCc2cccc(O)c2)ccn1 [Example 120, N-(4-{[6-(5-chloro-2-fluorophenyl)-3-[(3-hydroxyphenyl)methoxy]pyridazin-4-yl]amino}pyridin-2-yl)-2-[(1S,4S)-5-methyl-2,5-diazabicyclo[2.2.1]heptan-2-yl]acetamide] |
| ≤ 0.1 | CN1CCN([C@H]2C[C@@H](C(=O)Nc3cc(Nc4cc(-c5cc(Cl)ccc5F)nnc4OC4CCOC4)ccn3)C2)CC1 (single isomer, unassigned) [Example 111, N-(4-{[6-(5-chloro-2-fluorophenyl)-3-(oxolan-3-yloxy)pyridazin-4-yl]amino}pyridin-2-yl)-3-(4-methylpiperazin-1-yl)cyclobutane-1-carboxamide] |
| 0.126 to 0.316 | COCC1(CN(C)c2nnc(-c3cc(Cl)ccc3F)cc2Nc2ccnc(NC(=O)CCN3CCN(C)CC3)c2)CCOC1=O (single isomer, unassigned) [Example 202, N-(4-{[6-(5-chloro-2-fluorophenyl)-3-({[3-(methoxymethyl)-2-oxooxolan-3-yl]methyl}(methyl)amino)pyridazin-4-yl]amino}pyridin-2-yl)-3-(4-methylpiperazin-1-yl)propanamide] |
| ≤ 0.1 | CN(CCC(O)C(F)(F)F)c1nnc(-c2cc(Cl)ccc2F)cc1Nc1ccnc(NC(=O)CN2C[C@@H]3C[C@H]2CN3C)c1 (mixture of isomers) [Example 130, N-(4-{[6-(5-chloro-2-fluorophenyl)-3-[methyl(4,4,4-trifluoro-3-hydroxybutyl)amino]pyridazin-4-yl]amino}pyridin-2-yl)-2-[(1S,4S)-5-methyl-2,5-diazabicyclo[2.2.1]heptan-2-yl]acetamide] |
| 0.126 to 0.316 | CN1CCC(COC(=O)c2cccc(CSc3nnc(-c4cc(Cl)ccc4F)cc3Nc3ccnc4[nH]ccc34)c2)CC1 [Example 206, (1-methylpiperidin-4-yl)methyl 3-({[6-(5-chloro-2-fluorophenyl)-4-({1H-pyrrolo[2,3-b]pyridin-4-yl}amino)pyridazin-3-yl]sulfanyl}methyl)benzoate] |
| 0.398 to 3.16 | Nc1cc(Nc2cc(-c3cc(Cl)ccc3F)nnc2OCC(F)F)ccn1 [Example 53, N4-[6-(5-chloro-2-fluorophenyl)-3-(2,2-difluoroethoxy)pyridazin-4-yl]pyridine-2,4-diamine] |
| ≤ 0.1 | CN1CCN(CCC(=O)Nc2cc(Nc3cc(-c4cc(Cl)ccc4F)nnc3SCC3COC(C)(C)O3)ccn2)CC1 (stereo not shown) [Example 85, N-(4-{[6-(5-chloro-2-fluorophenyl)-3-{[(2,2-dimethyl-1,3-dioxolan-4-yl)methyl]sulfanyl}pyridazin-4-yl]amino}pyridin-2-yl)-3-(4-methylpiperazin-1-yl)propanamide] |
